Consider three molecules from ChEMBL document CHEMBL3259618, “Synthesis, molecular structure, DNA-binding, cytotoxicity, apoptosis and antioxidant activity of compounds containing aryloxazole” (Eur J Med Chem, 2014).

pIC50: −log10 of the molar value. Activity calls are given as the source filed them. No cut-off for these calls is given here. Some results are limits rather than exact numbers.

A short description of experiment [1]: Antioxidant activity assessed as suppression ratio of hydroxyl radical formation at 3.5 uM after 30 mins by absorbance analysis. The format is functional.
A short description of experiment [2]: Antioxidant activity assessed as suppression ratio of hydroxyl radical formation at 1.5 uM after 30 mins by absorbance analysis. The format is functional.
The nature of experiment [3]: Antitumor activity against human Bel7402 cells assessed as growth inhibition after 48 hrs by MTT assay. The format is functional, cell-based. To be noted: Bel-7402, 48 h. On the technique in general: Tetrazolium dyes change colour on reduction, which living cells bring about.
Experiment [4] is described as follows: Antioxidant activity assessed as suppression ratio of hydroxyl radical formation at 2.5 uM after 30 mins by absorbance analysis. The format is functional.
Experiment [5] can be described thus: Antioxidant activity assessed as suppression ratio of hydroxyl radical formation at 1 uM after 30 mins by absorbance analysis. The format is functional.
Experiment [6] in a line: Antioxidant activity assessed as suppression ratio of hydroxyl radical formation at 3 uM after 30 mins by absorbance analysis. The format is functional.
A short description of experiment [7]: Antitumor activity against human SKBR3 cells assessed as growth inhibition after 48 hrs by MTT assay. Conditions: SK-BR-3, 48 h. Type of experiment: functional, cell-based.
Experiment [8] in a line: Antioxidant activity assessed as suppression ratio of hydroxyl radical formation at 2 uM after 30 mins by absorbance analysis. Type of experiment: functional.
The nature of experiment [9]: Antitumor activity against human MG63 cells assessed as growth inhibition after 48 hrs by MTT assay. The format is functional, cell-based. Conditions: MG-63, 48 h.
In experiment [10] the test system is Calf thymus DNA. Description: Binding affinity to calf thymus DNA assessed as intercalation by measuring viscosity by viscometer analysis. The format is nucleic-acid assay. To be noted: Bos taurus.
The test system of experiment [11] is Escherichia coli. Briefly: Induction of Escherichia coli supercoiled pBR322 DNA cleavage assessed as increase in open circular form measured after UV irradiation by agarose gel electrophoresis analysis.
Experiment [12] concerns A549. Description: Antitumor activity against human A549 cells assessed as growth inhibition after 48 hrs by MTT assay. Type of experiment: functional, cell-based. To be noted: A549, 48 h.
The test system of experiment [13] is Escherichia coli. Description: Induction of Escherichia coli supercoiled pBR322 DNA cleavage assessed as decrease in intact supercoiled form measured after UV irradiation by agarose gel electrophoresis analysis.
The species named for experiment [14] is Bos taurus. Briefly: Intrinsic binding affinity to calf thymus DNA at 231 nm after 5 mins by electronic absorption analysis.
Experiment [15] can be described thus: Antioxidant activity assessed as suppression of hydroxyl radical formation after 30 mins by absorbance analysis. The format is functional.
The test system of experiment [16] is Calf thymus DNA. Description: Binding affinity to calf thymus DNA assessed as luminescence intensity at compound to DNA ratio of 1:1 by job plot analysis. Type of experiment: nucleic-acid assay. Conditions: Bos taurus.
The test system of experiment [17] is Calf thymus DNA. Description: Binding affinity to calf thymus DNA assessed as decrease in compound emission intensity at 705 nm at 20 uM by luminescence spectrometer analysis. Conditions: Bos taurus. Type of experiment: nucleic-acid assay.
Experiment [18] concerns Calf thymus DNA. Description: Binding affinity to calf thymus DNA assessed as hypochromicity at 231 nm at 40 uM after 5 mins by electronic absorption analysis. The format is nucleic-acid assay. To be noted: Bos taurus.
Experiment [19] can be described thus: Antioxidant activity assessed as suppression ratio of hydroxyl radical formation at 0.5 uM after 30 mins by absorbance analysis. Type of experiment: functional.
Experiment [20] relates to Calf thymus DNA. Briefly: Binding affinity to calf thymus DNA assessed as luminescence intensity at compound to DNA ratio of 1:2 by job plot analysis. Type of experiment: nucleic-acid assay. To be noted: Bos taurus.
The subject of experiment [21] is Calf thymus DNA. Briefly: Binding affinity to calf thymus DNA assessed as decrease in compound emission intensity at 356 nm at 20 uM by luminescence spectrometer analysis. Type of experiment: nucleic-acid assay. To be noted: Bos taurus.
Experiment [22] deals with A549. Description: Induction of apoptosis in human A549 cells assessed as viable cells at 50 uM after 24 hrs by flow cytometry (reference value: 92.28%). To be noted: A549, 24 h, read-out: Activity. The format is functional. (In general: A flow cytometer gives signals particle by particle.)
The species named for experiment [23] is Bos taurus. Description: Intrinsic binding affinity to calf thymus DNA at 233 nm after 5 mins by electronic absorption analysis.
For experiment [24], the system named is A549. Briefly: Induction of apoptosis in human A549 cells assessed as apoptotic cells at 25 uM after 24 hrs by flow cytometry (reference value: 0%). The format is functional.
Experiment [25] relates to A549. Briefly: Induction of apoptosis in human A549 cells after 24 hrs by flow cytometry. Type of experiment: functional, cell-based.
The subject of experiment [26] is A549. Briefly: Induction of apoptosis in human A549 cells assessed as necrotic cells at 25 uM after 24 hrs by flow cytometry (reference value: 0.04%). The format is functional.
The subject of experiment [27] is A549. Briefly: Induction of cell cycle arrest in human A549 cells assessed as accumulation at G2/M phase of cell cycle at 25 uM after 24 hrs by propidium iodide staining based flow cytometry (reference value: 14.73%). The format is functional.
In experiment [28] the test system is Calf thymus DNA. Briefly: Binding affinity to calf thymus DNA assessed as increase in compound emission intensity at 446 nm at 20 uM by luminescence spectrometer analysis. Type of experiment: nucleic-acid assay. To be noted: Bos taurus.
Experiment [29] relates to A549. Briefly: Induction of cell cycle arrest in human A549 cells assessed as accumulation at G0/G1 phase of cell cycle at 25 uM after 24 hrs by propidium iodide staining based flow cytometry (reference value: 73.79%). The format is functional.
The subject of experiment [30] is Calf thymus DNA. Description: Binding affinity to calf thymus DNA assessed as hypochromicity at 233 nm at 40 uM after 5 mins by electronic absorption analysis. Type of experiment: nucleic-acid assay. To be noted: Bos taurus.
For experiment [31], the system named is Calf thymus DNA. Briefly: Binding affinity to calf thymus DNA assessed as luminescence intensity at compound to DNA ratio of 4:1 by job plot analysis. Conditions: Bos taurus. The format is nucleic-acid assay.
In experiment [32] the test system is A549. Description: Induction of cell cycle arrest in human A549 cells assessed as accumulation at S phase of cell cycle at 25 uM after 24 hrs by propidium iodide staining based flow cytometry (reference value: 9.8%). The format is functional.
Experiment [33] deals with A549. Briefly: Induction of apoptosis in human A549 cells assessed as necrotic cells at 50 uM after 24 hrs by flow cytometry (reference value: 0.04%). The format is functional.
In experiment [34] the test system is A549. Briefly: Induction of apoptosis in human A549 cells assessed as apoptotic cells at 50 uM after 24 hrs by flow cytometry (reference value: 0%). The format is functional.
The subject of experiment [35] is A549. Description: Induction of apoptosis in human A549 cells assessed as viable cells at 25 uM after 24 hrs by flow cytometry (reference value: 92.28%). Conditions: A549, 24 h, read-out: Activity. Type of experiment: functional.

Regarding `CC(=O)OCc1nc2cc(-c3c(OC(C)=O)ccc4ccccc34)c3ccccc3c2o1`, the inhibition (commonly the share of the control response that was lost under treatment) in [1] was 89%; in experiment [2], 50.4%; in experiment [4], 81.2%; in experiment [5], 32.5%; in [6], 86.4%; in experiment [8] it was 75.7%. In addition, the inhibition result was “Dose-dependent effect” in experiment [15], 60.4% in [17] and 18.9% in experiment [19]. In addition, the pIC50 in [3], in experiment [7], in [9] and in experiment [12] was below 4.00 in each case. Besides, the result in [10], in experiment [11] and in experiment [13] was Active. The molecule further gave a Kb in experiment [14] of 2.64 ×10³ /M. Also, the Flu intensity in experiment [16] amounted to 0.54 a.u. Besides, in [18], the Activity stood at 29%.
For `OCc1nc2cc(-c3c(O)ccc4ccccc34)c3ccccc3c2o1`, the inhibition in experiment [1] turned out to be 88.2%; in experiment [2], 12.3%; in [4], 26.9%; in experiment [5], 9.24%; in experiment [6] it was 87.9%; in experiment [8], 23.9%. The inhibition result was “Dose-dependent effect” in [15], 79.6% in [21] and 4.04% in experiment [19]. Moreover, the pIC50 in experiment [3], in experiment [7], in experiment [9] and in experiment [12] was below 4.00 throughout. Also, the outcome in [10], in experiment [11] and in [13] was Active. Further, in experiment [20], the Flu intensity came to 0.32 a.u. Also, the Kb in experiment [14] was found to be 5.31 ×10³ /M. In addition, the Activity in [18] turned out to be 33.4%.
For the molecule `OCc1nc2cc(-c3c(O)ccc4cc(Br)ccc34)c3cc(Br)ccc3c2o1`, the inhibition is 86.7% in [1]; 28.3% in experiment [2]; 52.8% in [4]; 23.5% in experiment [5]; 80.9% in experiment [6]; 35.9% in experiment [8]. For the same molecule, the results for the inhibition result in experiment [15] and in experiment [19] were “Dose-dependent effect” and 15.2%, respectively. Moreover, the viability at 50 µM in experiment [22] turned out to be 80%. Besides, the Kb in [23] worked out at 4.44 ×10³ /M. Moreover, the pIC50 (usually the IC50 on a negative log10 scale, so that one unit is a factor of ten) in experiment [3] is 4.25; in [7] it was below 4.00; in [9], below 4.00; in experiment [12], 4.22. Moreover, the Activity is 3.57% in [24]; “Dose-dependent effect” in [25]; 2.87% in experiment [26]; 15.5% in experiment [27]; 5.76% in experiment [28]; 71.9% in experiment [29]. Also, the Activity was 34.6% in [30], 11.16% in experiment [32], 3.18% in experiment [33] and 4.09% in [34]. Moreover, the result in experiment [10], in experiment [11] and in experiment [13] was Active. Further, the Flu intensity in experiment [31] was 0.8 a.u. Further, in [35], the viability at 25 µM was 83.5%.
